Assay results taken from patent US20210403485A1, “PYRAZOLOPYRIMIDINE DERIVATIVE AS SELECTIVE TRK INHIBITOR” (SHANDONG LUYE PHARMACEUTICAL CO., LTD., priority 2018, published 2021).

Legend:
[1] = Animal body weight and general observations, Ba/F3 ETV6-NTRK3-G623R tumor-bearing nude mice
Protocol: (§4) The mice in groups were intragastrically administrated on the next day, and the animal body weight and the long and short diameters of the tumor were measured once every other day.

[2] = Pharmacokinetic test of compounds in mice (plasma, LC/MS/MS); format: in vivo, male CD-1 mice; conditions: for AUC(0-t): read-out: Area under the curve AUC0-last
Protocol: (§1) Experimental purpose: male CD-1 mice aged 7-9 weeks were selected as test animals, and the drug concentrations of the compounds in plasma at different time points after single intravenous injection (IV) and intragastric administration (PO) of the compounds were measured by an LC/MS/MS method, so that the pharmacokinetic behavior of the compounds disclosed herein in mice was studied, and the pharmacokinetic characteristic of the compounds was evaluated.
(§2) Drug preparation: the compounds were all prepared into clear solution by taking 5% DMSO+10% solutol+85% water as vehicle, and were used for administration in IV and PO groups. The dose of each compound administered was: IV, 3 mg/kg; PO, 10 mg/kg.

ALK = molecular target: T1, ALK (Homo sapiens, UniProt Q9UM73); test: Kinase inhibitory activity (33P-ATP, filtration-binding method, Reaction Biology Corp.); format: biochemical
T1 construct: purchased Reaction Biology Corp
T1 sequence (Q9UM73 19-1620): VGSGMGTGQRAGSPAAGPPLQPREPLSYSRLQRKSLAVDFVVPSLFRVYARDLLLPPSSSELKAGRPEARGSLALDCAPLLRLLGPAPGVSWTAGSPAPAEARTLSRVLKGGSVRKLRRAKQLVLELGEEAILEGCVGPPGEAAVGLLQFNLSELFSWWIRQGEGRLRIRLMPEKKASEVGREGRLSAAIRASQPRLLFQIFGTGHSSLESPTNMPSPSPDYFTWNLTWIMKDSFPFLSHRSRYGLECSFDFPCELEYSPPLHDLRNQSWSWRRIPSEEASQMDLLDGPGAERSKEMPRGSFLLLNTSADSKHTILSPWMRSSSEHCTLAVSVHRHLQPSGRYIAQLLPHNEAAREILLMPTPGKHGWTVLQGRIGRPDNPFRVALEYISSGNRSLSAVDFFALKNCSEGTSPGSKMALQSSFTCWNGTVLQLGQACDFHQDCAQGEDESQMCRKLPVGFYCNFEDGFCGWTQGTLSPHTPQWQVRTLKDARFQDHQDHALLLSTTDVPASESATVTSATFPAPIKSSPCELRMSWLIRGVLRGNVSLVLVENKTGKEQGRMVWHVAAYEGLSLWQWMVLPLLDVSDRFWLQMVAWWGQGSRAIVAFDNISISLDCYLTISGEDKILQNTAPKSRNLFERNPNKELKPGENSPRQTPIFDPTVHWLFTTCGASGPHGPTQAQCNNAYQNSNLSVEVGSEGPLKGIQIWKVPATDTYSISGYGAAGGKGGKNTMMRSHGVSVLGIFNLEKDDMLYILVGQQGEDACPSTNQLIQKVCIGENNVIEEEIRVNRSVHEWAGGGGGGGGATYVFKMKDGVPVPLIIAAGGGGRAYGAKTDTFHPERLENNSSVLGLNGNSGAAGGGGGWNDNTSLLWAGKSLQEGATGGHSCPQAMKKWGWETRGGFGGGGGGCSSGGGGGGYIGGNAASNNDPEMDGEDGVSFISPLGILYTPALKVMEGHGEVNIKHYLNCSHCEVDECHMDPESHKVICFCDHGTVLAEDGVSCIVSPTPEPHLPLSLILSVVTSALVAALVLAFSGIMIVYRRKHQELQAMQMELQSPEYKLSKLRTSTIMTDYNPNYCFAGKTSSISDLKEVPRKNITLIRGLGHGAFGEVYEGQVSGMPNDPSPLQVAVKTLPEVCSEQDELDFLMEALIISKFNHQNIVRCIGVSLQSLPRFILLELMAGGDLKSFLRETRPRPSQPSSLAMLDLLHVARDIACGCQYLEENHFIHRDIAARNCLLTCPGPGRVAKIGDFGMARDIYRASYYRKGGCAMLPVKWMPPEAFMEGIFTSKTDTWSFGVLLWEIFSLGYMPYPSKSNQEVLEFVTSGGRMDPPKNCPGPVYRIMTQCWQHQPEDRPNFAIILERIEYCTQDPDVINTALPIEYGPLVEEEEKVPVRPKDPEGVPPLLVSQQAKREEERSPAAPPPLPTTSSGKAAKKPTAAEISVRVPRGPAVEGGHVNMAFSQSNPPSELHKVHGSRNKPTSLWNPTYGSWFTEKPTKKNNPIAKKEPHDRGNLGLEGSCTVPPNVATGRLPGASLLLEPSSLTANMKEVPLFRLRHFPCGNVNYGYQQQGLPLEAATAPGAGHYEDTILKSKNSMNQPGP
Protocol: The mixture was incubated at room temperature for 20 minutes, added with ^33P-ATP at a certain concentration to start the reaction, and then incubated at room temperature for 120 minutes. Finally, the radioactivity of the reactant was detected by the filtration-binding method. The final kinase activity was expressed as the ratio of the remaining kinase activity in the test sample to the kinase activity of the DMSO control. The dose-response curves were fitted and IC50 values were calculated by GraphPad software.

[3] = Animal body weight and general observations, Ba/F3 ETV6-NTRK3 tumor-bearing nude mice
Protocol: as §4

[4] = Pharmacokinetic test of compounds in rats (plasma, LC/MS/MS); format: in vivo, male SD rats; conditions: for AUC(0-t): read-out: Area under the curve AUC0-last
Protocol: as §1, with “SD rats” for “CD-1 mice”, “rats” for “mice”
as §2

BaF3 ETV6-NTRK3-WT = molecular target: T2, BaF3 ETV6-NTRK3-WT (Homo sapiens, UniProt Q16288); test: Inhibitory activity against cell proliferation (CellTiter-Glo, 72 hours); format: cell-based; conditions: read-out: Half maximal inhibitory concentration IC50 of cells, BaF3 ETV6-NTRK3-WT
T2 construct: fused on or other part: N-terminal part of ETV6 (TEL) as fusion partner (part of the key); P41212 (Transcription factor ETV6)
T2 sequence (Q16288 whole entry, stated change not applied, the tested form may be a part): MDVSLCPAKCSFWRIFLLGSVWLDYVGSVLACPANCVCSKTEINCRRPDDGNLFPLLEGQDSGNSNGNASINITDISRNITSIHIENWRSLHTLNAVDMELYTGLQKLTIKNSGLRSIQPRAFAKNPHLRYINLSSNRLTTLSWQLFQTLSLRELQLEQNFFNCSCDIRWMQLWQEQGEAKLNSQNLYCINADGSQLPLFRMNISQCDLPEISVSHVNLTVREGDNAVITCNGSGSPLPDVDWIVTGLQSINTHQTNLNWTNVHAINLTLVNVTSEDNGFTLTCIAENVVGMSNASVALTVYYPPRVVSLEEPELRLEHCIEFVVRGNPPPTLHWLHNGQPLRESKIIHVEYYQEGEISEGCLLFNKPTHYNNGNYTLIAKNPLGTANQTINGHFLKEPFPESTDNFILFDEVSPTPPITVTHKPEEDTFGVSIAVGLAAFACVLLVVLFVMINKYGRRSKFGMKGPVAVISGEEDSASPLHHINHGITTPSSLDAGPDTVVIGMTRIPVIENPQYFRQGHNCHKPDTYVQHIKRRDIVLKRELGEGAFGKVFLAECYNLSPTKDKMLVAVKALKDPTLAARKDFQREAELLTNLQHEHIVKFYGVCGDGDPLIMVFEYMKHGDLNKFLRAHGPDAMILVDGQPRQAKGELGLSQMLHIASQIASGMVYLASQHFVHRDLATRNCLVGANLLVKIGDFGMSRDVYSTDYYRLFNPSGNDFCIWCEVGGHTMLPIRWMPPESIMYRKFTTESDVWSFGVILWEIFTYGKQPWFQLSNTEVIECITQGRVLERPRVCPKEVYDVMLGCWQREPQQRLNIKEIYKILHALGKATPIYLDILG
Outline: (§3)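 Log-phase Ba/F3 cells (trypan blue viability above 90%) were treated in triplicate with a 9-point, 3-fold compound series. ATP-dependent luminescence was read after CellTiter-Glo addition, and IC50 values came from nonlinear sigmoidal dose-response fits.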

BaF3 LMNA-NTRK1-G667A = molecular target: T3, BaF3 LMNA-NTRK1-G667A (Homo sapiens, UniProt P04629, G667A, cells depend on it); test: as above; format: cell-based; conditions: read-out: Half maximal inhibitory concentration IC50 of cells, BaF3 LMNA-NTRK1-G667A
T3 construct: fused on or other part: N-terminal part of LMNA as fusion partner (part of the key); P02545 (Prelamin-A/C)
T3 sequence (P04629 whole entry G667A, the tested form may be a part): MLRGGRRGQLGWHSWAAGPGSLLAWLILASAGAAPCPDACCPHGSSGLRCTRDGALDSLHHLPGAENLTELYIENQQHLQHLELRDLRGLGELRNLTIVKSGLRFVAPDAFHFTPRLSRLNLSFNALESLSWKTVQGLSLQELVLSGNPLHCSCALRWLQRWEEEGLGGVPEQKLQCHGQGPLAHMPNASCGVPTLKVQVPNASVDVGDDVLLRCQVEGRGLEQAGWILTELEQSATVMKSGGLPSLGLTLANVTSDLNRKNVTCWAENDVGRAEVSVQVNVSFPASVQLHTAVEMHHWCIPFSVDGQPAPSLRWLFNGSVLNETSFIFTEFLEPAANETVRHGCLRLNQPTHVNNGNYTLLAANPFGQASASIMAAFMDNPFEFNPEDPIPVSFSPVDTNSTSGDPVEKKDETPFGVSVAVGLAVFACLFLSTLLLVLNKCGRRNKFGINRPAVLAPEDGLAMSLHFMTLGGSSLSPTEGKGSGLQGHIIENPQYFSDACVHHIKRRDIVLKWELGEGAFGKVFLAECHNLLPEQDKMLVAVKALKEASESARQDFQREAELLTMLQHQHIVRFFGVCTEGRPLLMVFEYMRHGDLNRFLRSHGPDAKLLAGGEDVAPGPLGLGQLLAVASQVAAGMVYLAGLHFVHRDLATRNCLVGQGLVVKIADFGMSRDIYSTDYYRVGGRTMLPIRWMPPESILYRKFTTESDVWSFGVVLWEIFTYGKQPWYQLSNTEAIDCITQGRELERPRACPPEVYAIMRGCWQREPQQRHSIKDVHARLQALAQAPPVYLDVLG
Outline: as §3

Ba/F3 LMNA-NTRK1-WT = molecular target: T4, Ba/F3 LMNA-NTRK1-WT (Homo sapiens, UniProt P04629); test: as above; format: cell-based; conditions: read-out: Half maximal inhibitory concentration IC50 of cells, Ba/F3 LMNA-NTRK1-WT
T4 construct: fused on or other part: N-terminal part of LMNA as fusion partner (part of the key); P02545 (Prelamin-A/C)
T4 sequence (P04629 whole entry, change not shown, the tested form may be a part): as the sequence (P04629 whole entry G667A, the tested form may be a part) above, with A667G counted along it
Outline: as §3

BaF3 LMNA-NTRK1-G595R = molecular target: T5, BaF3 LMNA-NTRK1-G595R (Homo sapiens, UniProt P04629, G595R, cells depend on it); test: as above; format: cell-based; conditions: read-out: Half maximal inhibitory concentration IC50 of cells, BaF3 LMNA-NTRK1-G595R
T5 construct: fused on or other part: N-terminal part of LMNA as fusion partner (part of the key); P02545 (Prelamin-A/C)
T5 sequence (P04629 whole entry G595R, the tested form may be a part): as the sequence (P04629 whole entry G667A, the tested form may be a part) above, with G595R, A667G counted along it
Outline: as §3

Ba/F3 LMNA-NTRK1-F589L = molecular target: T6, Ba/F3 LMNA-NTRK1-F589L (Homo sapiens, UniProt P04629, F589L, cells depend on it); test: as above; format: cell-based; conditions: read-out: Half maximal inhibitory concentration IC50 of cells, Ba/F3 LMNA-NTRK1-F589L
T6 construct: fused on or other part: N-terminal part of LMNA as fusion partner (part of the key); P02545 (Prelamin-A/C)
T6 sequence (P04629 whole entry F589L, the tested form may be a part): as the sequence (P04629 whole entry G667A, the tested form may be a part) above, with F589L, A667G counted along it
Outline: as §3

O=C1NC2(CC2)COc2ncc(F)cc2C2COCCN2c2ccn3ncc1c3n2 (single isomer, unassigned) [WX001B]
Rate of change in body weight (%) of day 11 to day 0 ([1]; 2.5 mg/kg bid): 13.8% | Rate of change in body weight (%) of day 11 to day 0 ([1]; 5 mg/kg bid): 14.3% | Rate of change in body weight (%) of day 11 to day 0 ([1]; 10 mg/kg bid): 15.6% | Rate of change in body weight (%) of day 11 to day 0 ([1]; 20 mg/kg bid): 8.8% | Tolerance (body weight course) ([1]; 2.5-20 mg/kg bid): good tolerance | Body weight ([1]; Day 0, 2.5 mg/kg bid): 23.6 ± 1.7 g | Body weight ([1]; Day 0, 5 mg/kg bid): 24.4 ± 1.9 g | Body weight ([1]; Day 0, 10 mg/kg bid): 23.6 ± 2.2 g | Body weight ([1]; Day 0, 20 mg/kg bid): 24.1 ± 2.3 g | Body weight ([1]; Day 3, 2.5 mg/kg bid): 24.6 ± 1.7 g | Body weight ([1]; Day 3, 5 mg/kg bid): 25.7 ± 1.9 g | Body weight ([1]; Day 3, 10 mg/kg bid): 24.9 ± 2.1 g | Body weight ([1]; Day 3, 20 mg/kg bid): 25.9 ± 2.8 g | Body weight ([1]; Day 5, 2.5 mg/kg bid): 25.5 ± 1.8 g | Body weight ([1]; Day 5, 5 mg/kg bid): 26.5 ± 1.9 g | Body weight ([1]; Day 5, 10 mg/kg bid): 26.3 ± 2.2 g | Body weight ([1]; Day 5, 20 mg/kg bid): 26.9 ± 2.9 g | Body weight ([1]; Day 7, 2.5 mg/kg bid): 26.1 ± 2.1 g | Body weight ([1]; Day 7, 5 mg/kg bid): 27.1 ± 1.8 g | Body weight ([1]; Day 7, 10 mg/kg bid): 26.7 ± 2.2 g | Body weight ([1]; Day 7, 20 mg/kg bid): 26.6 ± 3.2 g | Body weight ([1]; Day 9, 2.5 mg/kg bid): 26.5 ± 1.8 g | Body weight ([1]; Day 9, 5 mg/kg bid): 27.9 ± 1.9 g | Body weight ([1]; Day 9, 10 mg/kg bid): 26.8 ± 2.2 g | Body weight ([1]; Day 9, 20 mg/kg bid): 26.4 ± 3.5 g | Body weight ([1]; Day 11, 2.5 mg/kg bid): 26.8 ± 2.0 g | Body weight ([1]; Day 11, 5 mg/kg bid): 27.9 ± 2.6 g | Body weight ([1]; Day 11, 10 mg/kg bid): 27.3 ± 2.2 g | Body weight ([1]; Day 11, 20 mg/kg bid): 26.3 ± 3.9 g | Apparent clearance Cl ([2]; IV, 3 mg/kg): 7.33 mL/min/kg | Vd ([2]; male, CD-1, mouse, plasma, IV, 3 mg/kg, read-out: Apparent volume of distribution Vd): 0.77 L/kg | AUC(0-t) ([2]; male, CD-1, mouse, plasma, IV, 3 mg/kg): 16.6 µM·h | half-life ([2]; male, CD-1, mouse, plasma, IV, 3 mg/kg, read-out: Half-life T1/2 (converted)): 1.58 h | AUC(0-t) ([2]; male, CD-1, mouse, plasma, PO, 10 mg/kg): 49.1 µM·h | bioavailability ([2]; male, CD-1, mouse, plasma, PO, 10 mg/kg, read-out: Bioavailability F %): 89% | Cmax ([2]; male, CD-1, mouse, plasma, PO, 10 mg/kg, read-out: Peak concentration Cmax): 12.2 µM | IC50 (ALK): 182 nM | Rate of change in body weight (%) of day 11 to day 0 ([3]; 2.5 mg/kg bid): 4.9% | Rate of change in body weight (%) of day 11 to day 0 ([3]; 5 mg/kg bid): 5.0% | Rate of change in body weight (%) of day 11 to day 0 ([3]; 10 mg/kg bid): 4.8% | Rate of change in body weight (%) of day 11 to day 0 ([3]; 20 mg/kg bid): 5.1% | Body weight ([3]; Day 0, 2.5 mg/kg bid): 22.9 ± 1.6 g | Body weight ([3]; Day 0, 5 mg/kg bid): 23.5 ± 1.6 g | Body weight ([3]; Day 0, 10 mg/kg bid): 23.3 ± 0.9 g | Body weight ([3]; Day 0, 20 mg/kg bid): 23.2 ± 1.9 g | Body weight ([3]; Day 3, 2.5 mg/kg bid): 24.2 ± 2.0 g | Body weight ([3]; Day 3, 5 mg/kg bid): 25.5 ± 1.8 g | Body weight ([3]; Day 3, 10 mg/kg bid): 24.9 ± 0.7 g | Body weight ([3]; Day 3, 20 mg/kg bid): 25.1 ± 2.5 g | Body weight ([3]; Day 5, 2.5 mg/kg bid): 24.8 ± 1.8 g | Body weight ([3]; Day 5, 5 mg/kg bid): 26.4 ± 1.6 g | Body weight ([3]; Day 5, 10 mg/kg bid): 25.8 ± 0.7 g | Body weight ([3]; Day 5, 20 mg/kg bid): 26.2 ± 2.8 g | Body weight ([3]; Day 7, 2.5 mg/kg bid): 25.4 ± 2.0 g | Body weight ([3]; Day 7, 5 mg/kg bid): 27.5 ± 1.7 g | Body weight ([3]; Day 7, 10 mg/kg bid): 26.3 ± 1.1 g | Body weight ([3]; Day 7, 20 mg/kg bid): 27.2 ± 2.7 g | Body weight ([3]; Day 9, 2.5 mg/kg bid): 25.5 ± 1.8 g | Body weight ([3]; Day 9, 5 mg/kg bid): 27.5 ± 2.3 g | Body weight ([3]; Day 9, 10 mg/kg bid): 26.4 ± 1.1 g | Body weight ([3]; Day 9, 20 mg/kg bid): 27.7 ± 2.9 g | Body weight ([3]; Day 11, 2.5 mg/kg bid): 25.7 ± 1.9 g | Body weight ([3]; Day 11, 5 mg/kg bid): 27.8 ± 2.2 g | Body weight ([3]; Day 11, 10 mg/kg bid): 26.4 ± 1.4 g | Body weight ([3]; Day 11, 20 mg/kg bid): 27.6 ± 3.5 g | General observations: survival ([3]; all animals in all dose groups): survived until the end of administration | Tolerance (body weight course) ([3]; all dose groups, 2.5-20 mg/kg bid): good tolerance | Apparent clearance Cl ([4]; IV, 3 mg/kg): 19.7 mL/min/kg | Vd ([4]; male, SD, rat, plasma, IV, 3 mg/kg, read-out: Apparent volume of distribution Vd): 1.9 L/kg | AUC(0-t) ([4]; male, SD, rat, plasma, IV, 3 mg/kg): 6.24 µM·h | half-life ([4]; male, SD, rat, plasma, IV, 3 mg/kg, read-out: Half-life T1/2 (converted)): 1.2 h | AUC(0-t) ([4]; male, SD, rat, plasma, PO, 10 mg/kg): 8.07 µM·h | bioavailability ([4]; male, SD, rat, plasma, PO, 10 mg/kg, read-out: Bioavailability F %): 39% | Cmax ([4]; male, SD, rat, plasma, PO, 10 mg/kg, read-out: Peak concentration Cmax): 1.8 µM | GI50 (BaF3 ETV6-NTRK3-WT): 2.6 nM | GI50 (BaF3 LMNA-NTRK1-G667A): 0.8 nM | GI50 (Ba/F3 LMNA-NTRK1-WT): 0.6 nM | GI50 (BaF3 LMNA-NTRK1-G595R): 2.7 nM | GI50 (Ba/F3 LMNA-NTRK1-F589L): 7.7 nM
